Marks after values point to notes of the source that are not given here.
Assays:
[1] = system: CCRF-CEM (CCL-119) (T-lymphoblastic leukemia); test: MTT cytotoxicity on CCRF-CEM cells; format: cell-based; settings: 24 hours
Protocol: (§1) The cytotoxic properties of the compounds were determined in vitro using the MTT method in 96-well plates (Costar, USA). […] Rat liver hepatocytes were obtained according to the method, human blood mononuclear cells - according to [23]. Fibroblast cells were obtained according to the method of [24] with some modifications. Cell cultures were subcultured into 96-well plates according to the method of [21] by adding 100 μl of nutrient medium. The CCRF-CEM suspension culture was poured into a tube, centrifuged at 800 rpm for 10 minutes, and the supernatant was discarded. […] Data obtained in 3 independent experiments were expressed as the mean value for each concentration ± standard error of the mean, relative to the control values (cells without test compounds). The cytotoxic effect of each of the studied compounds was compared with the effect of the cytostatic Cisplatin-Naprod (India), containing cisplatin as an active component. Table 1: IC50 μM value for test compounds

[2] = system: fibroblasts; test: MTT cytotoxicity on fibroblasts; format: cell-based; settings: 24 hours
Protocol: as §1

[3] = system: Rat liver hepatocytes; test: MTT cytotoxicity on hepatocytes; format: cell-based; settings: 24 hours
Protocol: as §1

[4] = Acute toxicity study (LD50); settings: mouse, in vivo, ip
Protocol: (§2) We studied the acute toxicity of compound F1 in vivo. The experiments were carried out on outbred white mice of both sexes weighing 18-20 g (24 pcs.). The animals were divided into groups of 12 mice each. The compound was dissolved in DMSO and then adjusted to the desired concentration with 0.9% NaCl solution and administered intraperitoneally and subcutaneously in a dose range from 5.0 to 200.0 mg/kg. […] The maximum relative error of the applied dose was no more than 5%.
as §2, with “F2” for “F1”, “brought” for “adjusted”, “subcutaneously to animals” for “subcutaneously”, “administered” for “applied”

[5] = system: blood of patients with leukemia (combined group); test: Hemogram of blood of patients with leukemia (combined group) after exposure; format: cell-based; settings: for Band (s/n) neutrophils / Blasts / Destroyed cells / Eosinophils / Lymphocytes / Monocytes / Myelocytes / Promyelocytes / Segmented (s/i) neutrophils: 10 µg/ml, 3 hours, 37.0°C
Text: (§3) The effect of compounds F1 and F2 was studied on biological material (blood) of patients with hematological malignancies (leukemia), as well as for individual nosologies, in particular, patients with leukemia (combined group) (n=224), T-ALL (n=84), B-ALL (n=100), ALL (n=100), AML (n= 98), AML (n=94) and AML (n= 98) were studied. A total of 798 blood samples from patients with leukemia were examined.
(§4) The drugs Cytosar (Alexan) (Ebewe Pharma, Austria) and doxorubicin (Naprod, Mumbai, India) recommended by WHO for the treatment of the above oncohematological diseases were used as comparison drugs.
(§5) 5 ml of venous blood from sick and conditionally healthy individuals were collected into Vacutainer tubes with the addition of EDTA (Himedia, India).
(§6) The resulting blood was divided into aliquots of 1 ml and 10 µl (10 µg/ml) of the studied drugs (cytosar, doxorubicin, F1 and F2) were added to each tube.

[6] = system: blood of patients with T-ALL; test: Hemogram of blood of patients with T-ALL after exposure; format: cell-based; settings: for Band (s/n) neutrophils / Blasts / Destroyed cells / Eosinophils / Lymphocytes / Monocytes / Myelocytes / Promyelocytes / Segmented (s/i) neutrophils: 10 µg/ml, 3 hours, 37.0°C
Text: as §3, §4, §5, §6

[7] = system: blood of patients with B-ALL; test: Hemogram of blood of patients with B-ALL after exposure; format: cell-based; settings: for Band (s/n) neutrophils / Blasts / Destroyed cells / Eosinophils / Lymphocytes / Monocytes / Myelocytes / Promyelocytes / Segmented (s/i) neutrophils: 10 µg/ml, 3 hours, 37.0°C
Protocol: A total of 798 blood samples from patients with leukemia were examined.
as §4, §5, §6

[8] = system: blood of patients with ALL; test: Hemogram of blood of patients with ALL after exposure; format: cell-based; settings: for Band (s/n) neutrophils / Blasts / Destroyed cells / Eosinophils / Lymphocytes / Monocytes / Myelocytes / Promyelocytes / Segmented (s/i) neutrophils: 10 µg/ml, 3 hours, 37.0°C
Protocol: as §3, §5, §6

[9] = system: blood of patients with AML; test: Hemogram of blood of patients with AML after exposure (Example 12, Table 9); format: cell-based; settings: for Band (s/n) neutrophils / Blasts / Destroyed cells / Eosinophils / Lymphocytes / Monocytes / Myelocytes / Promyelocytes / Segmented (s/i) neutrophils: AML (Table 9), 10 µg/ml, 3 hours, 37.0°C
Protocol: as §4, §5, §6

[10] = system: blood of patients with AML; test: Hemogram of blood of patients with AML after exposure (Example 13, Table 10; also OMML); format: cell-based; settings: for Band (s/n) neutrophils / Blasts / Destroyed cells / Eosinophils / Lymphocytes / Monocytes / Myelocytes / Promyelocytes / Segmented (s/i) neutrophils: AML (Table 10), 10 µg/ml, 3 hours, 37.0°C
Protocol: as §4, §5, §6

[11] = system: blood of patients with AML; test: Hemogram of blood of patients with AML after exposure (Example 14, Table 11); format: cell-based; settings: for Band (s/n) neutrophils / Blasts / Destroyed cells / Eosinophils / Lymphocytes / Monocytes / Myelocytes / Promyelocytes / Segmented (s/i) neutrophils: AML (Table 11), 10 µg/ml, 3 hours, 37.0°C
Text: as §3, §4, §5, §6

[12] = system: blood of conditionally healthy individuals; test: Hemogram of blood of conditionally healthy individuals after exposure to the drugs; settings: 10 µg/ml, 3 hours, 37.0°C
Protocol: as §5, §6

[13] = system: outbred white mice; test: Acute toxicity study (LD50)
Protocol: as §2
as §2, with “F2” for “F1”, “brought” for “adjusted”, “subcutaneously to animals” for “subcutaneously”, “administered” for “applied”

[14] = AML (Example 13), compared with doxorubicin
[15] = AML (Example 14), compared to cytosar

SMILES: N.N.[Cl][Pt][Cl] [Cisplatin, cisplatin, reference compound]
- IC50 [1]: 12.4 µM
- IC50 [2]: 29.4 µM
- IC50 [3]: 28.7 µM

SMILES: COc1cccc2c1C(=O)c1c(O)c3c(c(O)c1C2=O)C[C@@](O)(C(=O)CO)C[C@@H]3O[C@H]1C[C@H](N)[C@H](O)[C@H](C)O1 [Doxorubicin, doxorubicin, reference compound]
- LD50 at 1 week ([4]; both, outbred white): 10.8 mg/kg
- Band (s/n) neutrophils [5]: 1,8±0,5%
- Blasts [5]: 65,6±2,6 %
- Destroyed cells [5]: 11,4±2,2 %
- Eosinophils [5]: 3,8±2,4%
- Lymphocytes [5]: 15,0±1,8%
- Monocytes [5]: 5,3±1,2%
- Myelocytes [5]: 3,3±1,2%
- Promyelocytes [5]: 0,0±0,000%
- Segmented (s/i) neutrophils [5]: 5,8±0,7%
- Band (s/n) neutrophils [6]: 1,2±0,1 %
- Blasts [6]: 67,2±0,9 %
- Destroyed cells [6]: 13,4±0,5 %
- Eosinophils [6]: 0,0±0,0%
- Lymphocytes [6]: 9,8±0,1 %
- Monocytes [6]: 1.7±0,2%
- Myelocytes [6]: 0,0±0,0%
- Promyelocytes [6]: 0,0±0,0%
- Segmented (s/i) neutrophils [6]: 6,7±0,4%
- Band (s/n) neutrophils [7]: 0,7±0,2%
- Blasts [7]: 64,3±3,7%
- Destroyed cells [7]: 13,0±2,8 %
- Eosinophils [7]: 0,1±0,1%
- Lymphocytes [7]: 15,0±2,9%
- Monocytes [7]: 1.6±0,5%
- Myelocytes [7]: 0,6±0,3%
- Promyelocytes [7]: 0,0±0,0%
- Segmented (s/i) neutrophils [7]: 4,9±0,9%
- Band (s/n) neutrophils [8]: 0,3±0,1%
- Blasts [8]: 76,4±1,7 %
- Destroyed cells [8]: 9,0±1,1*^ %
- Eosinophils [8]: 0,2±0,1%
- Lymphocytes [8]: 9,9±1,3%
- Monocytes [8]: 1.9±0,6%
- Myelocytes [8]: 0,2±0,1%
- Promyelocytes [8]: 0,0±0,0%
- Segmented (s/i) neutrophils [8]: 2,2±0,3%
- Band (s/n) neutrophils [9]: 0,5±0,4%
- Blasts [9]: 68,4±3,6 %
- Destroyed cells [9]: 5,6±1,4 %
- Eosinophils [9]: 0,8±0,7%
- Lymphocytes [9]: 13,2±2,4%
- Monocytes [9]: 5.2±1,5%
- Myelocytes [9]: 0,9±0,8%
- Promyelocytes [9]: 0,0±0,0%
- Segmented (s/i) neutrophils [9]: 5,5±1,2%
- Band (s/n) neutrophils [10]: 3,4±0,5%
- Blasts [10]: 58,4±1,9%
- Destroyed cells [10]: 15,1±1,1 %
- Eosinophils [10]: 0,7±0,3%
- Lymphocytes [10]: 6,1±0,7%
- Monocytes [10]: 1.6±0,3 %
- Myelocytes [10]: 4,0±0,4 %
- Promyelocytes [10]: 0,0±0,0%
- Segmented (s/i) neutrophils [10]: 10,8±1,0%
- Band (s/n) neutrophils [11]: 0,8±0,2%
- Blasts [11]: 45,4±1,9 %
- Destroyed cells [11]: 24,0±4,0 %
- Eosinophils [11]: 0,0±0,0%
- Lymphocytes [11]: 9,7±1,5%
- Monocytes [11]: 11.2±2,3 %
- Myelocytes [11]: 0,0±0,0%
- Promyelocytes [11]: 0,0±0,0%
- Segmented (s/i) neutrophils [11]: 9,1±1,5%
- Band (s/n) neutrophils [12]: 1,5±0,2%
- Blasts [12]: 0,0±0,0%
- Destroyed cells [12]: 0,0±0,0%
- Eosinophils [12]: 1,7±0,2%
- Lymphocytes [12]: 28,1±0,9%
- Monocytes [12]: 6,1±0,4%
- Myelocytes [12]: 0,0±0,0%
- Promyelocytes [12]: 0,0±0,0%
- Segmented (s/i) neutrophils [12]: 62,6±1,0%

SMILES: COc1cc2c(cc1OC)C(c1cc3c(cc1Br)OCO3)NCC2 (stereo not drawn) [Compound F1, 1-(2'-bromo-4',5'-methylenedioxyphenyl)-6,7-dimethoxy-1,2,3,4-tetrahydroisoquinoline]
- IC50 ([1]; Homo sapiens): 36.6 µM
- IC50 ([2]; Fibroblast): > 100 µM
- IC50 ([3]; Rattus norvegicus, Hepatocyte): > 100 µM
- LD50 at 168 h [4]: 240 ± 13.8 mg/kg
- toxicity class ([13]; classified from LD50): toxicity class 3 (moderately toxic)
- LD50 dose ([13]; intraperitoneal, mice, observed for a week, 10080 min): 240,0±13,8 mg/kg
- LD50 value, times higher than cytosar (cytarabine) ([13]; relative to cytosar): 57 times
- LD50 value, times higher than doxorubicin ([13]; relative to doxorubicin): 22 times
- Band (s/n) neutrophils [5]: 2,5±0,3 %
- Blasts [5]: 65,7±2,3 %
- Destroyed cells [5]: 14,8±1,8*^ # %
- Eosinophils [5]: 4,0±0,6 %
- Lymphocytes [5]: 12,0±0,9%
- Monocytes [5]: 4,9±0,6 %
- Myelocytes [5]: 4,0±0,5 %
- Promyelocytes [5]: 5,0±0,6^ %
- Segmented (s/i) neutrophils [5]: 7,0±0,8%
- decrease in the content of blasts ([5]; versus Control group): 10.7%
- increase in the percentage of neutrophils ([5]; versus control): 1.8 times
- increase in the proportion of destroyed cells ([5]; versus control): 9.3%
- increase in the proportion of eosinophils ([5]; versus control): 2.7 times
- Band (s/n) neutrophils [6]: 0.0±0.0%
- Blasts [6]: 68,9±1,7 %
- Destroyed cells [6]: 16,9±1,1*^ # %
- Eosinophils [6]: 0,0±0,6%
- Lymphocytes [6]: 9,1±1,0%
- Monocytes [6]: 1,3±0,3 %
- Myelocytes [6]: 0,0±0,0%
- Promyelocytes [6]: 0,0±0,0%
- Segmented (s/i) neutrophils [6]: 3.9±0,4 %
- decrease in p/i neutrophils ([6]; comparator not stated): 1.7 times
- increase in the proportion of destroyed cells ([6]; compared with cytosar): 1.9 times
- increase in the proportion of destroyed cells ([6]; compared with doxorubicin): 1.3 times
- decrease in the content of blasts [7]: 1.16 times
- increase in the proportion of destroyed cells [7]: 4.1 times
- Band (s/n) neutrophils [7]: 1,4±0,4%
- Blasts [7]: 59,0±2,9 %
- Destroyed cells [7]: 12,6±2,0 %
- Eosinophils [7]: 0,2±0,1%
- Lymphocytes [7]: 13,5±1,7 %
- Monocytes [7]: 3,5±0,8 %
- Myelocytes [7]: 0,5±0,2%
- Promyelocytes [7]: 0,0±0,0%
- Segmented (s/i) neutrophils [7]: 9,4±0,9 %
- Band (s/n) neutrophils [8]: 0,3±0,1%
- Blasts [8]: 68,4±2,7*^ %
- Destroyed cells [8]: 12,9±1,7*^ %
- Eosinophils [8]: 0,0±0,0%
- Lymphocytes [8]: 12,6±1,1 %
- Monocytes [8]: 1,8±0,4%
- Myelocytes [8]: 0,0±0,0%
- Promyelocytes [8]: 0,0±0,0%
- Segmented (s/i) neutrophils [8]: 4,2±1,0 %
- percentage of destroyed cells higher ([8]; compared to cytosar): 2.7 times
- difference in the level of blast cells ([8]; compared with cytosar): 1.15 times
- decrease in the percentage of blasts ([9]; AML (Example 12)): 1.2 times
- increase in the level of destroyed cells ([9]; AML (Example 12)): 4.5 times
- increase in the proportion of mature differentiated neutrophils ([9]; AML (Example 12)): 2.6 times
- increase in the percentage of destroyed cells ([9]; AML (Example 12), compared with cytosar): 2.0 times
- decrease in the percentage of destroyed cells ([9]; AML (Example 12), compared with doxorubicin): 2.3 times
- Band (s/n) neutrophils [9]: 1,2±0,3%
- Blasts [9]: 63,6±2,3 %
- Destroyed cells [9]: 12,7±1,2*^ # %
- Eosinophils [9]: 0,4±0,2%
- Lymphocytes [9]: 10,7±1,1%
- Monocytes [9]: 3,0±0,7%
- Myelocytes [9]: 1,2±0,6%
- Promyelocytes [9]: 0,3±0,2%
- Segmented (s/i) neutrophils [9]: 7,0±0,7 %
- decrease in the percentage of myelocytes ([10]; AML (Example 13)): 2.5 times
- decrease in the proportion of blasts ([10]; AML (Example 13)): 1.6%
- increase in the proportion of destroyed cells ([10]; AML (Example 13)): 5.3 times
- increase in the proportion of neutrophils ([10]; AML (Example 13)): 2.0 times
- proportion of destroyed cells higher ([10]; AML (Example 13), compared with Cytosar): 2.4 times
- myelocytes lower [10, 14]: 1.5 times
- proportion of destroyed cells higher [10, 14]: 1.2 times
- percentage of myelocytes lower ([10]; AML (Example 13), relative to cytosar): 6.15 times
- Band (s/n) neutrophils [10]: 2,8±0,3%
- Blasts [10]: 51,1±2,2%
- Destroyed cells [10]: 18,7±1,3*^ # %
- Eosinophils [10]: 0,8±0,3%
- Lymphocytes [10]: 6,2±0,6%
- Monocytes [10]: 1,4±0,2 %
- Myelocytes [10]: 2,6±0,5 %
- Promyelocytes [10]: 0,0±0,0%
- Segmented (s/i) neutrophils [10]: 16,6±1,3 %
- percentage of blasts lower [11, 15]: 4.1%
- percentage of monocytes lower [11, 15]: 2.4 times
- percentage of destroyed cells higher ([11]; AML (Example 14), than after Cytosar): 1.8 times
- Band (s/n) neutrophils [11]: 1,6±0,5%
- Blasts [11]: 55,4±3,1 %
- Destroyed cells [11]: 22,6±2,3*^ %
- Eosinophils [11]: 0,0±0,0%
- Lymphocytes [11]: 10,1±1,0%
- Monocytes [11]: 2.0±0,6^ %
- Myelocytes [11]: 0,9±0,3%
- Promyelocytes [11]: 0,0±0,0%
- Segmented (s/i) neutrophils [11]: 9,6±1,7%

Reference: patent EP4506003A1, “HALOGEN DERIVATIVES OF (4´,5´- METHYLENEDIOXYPHENYL)-6,7-DIMETHOXY-1,2,3,4-TETRAHYDROISOQUINOLINE FOR USE IN THE TREATMENT OF LEUKEMIA” (S.Yu Yunusov Institute of Chemistry of Plant Substances of …, priority 2023, dated 2025)
